Data on 4 compounds can be found in patent publication US10188634B2, “3-(3H-imidazo[4,5-C]pyridin-2-yl)-1 H-pyrazolo[4,3-B]pyridines and therapeutic uses thereof” (Samumed, LLC, priority 2015, dated 2019).

What all share (format): cell-based
Assay [1] concerns Wnt activity (Sp5-Luc reporter, human Sp5 promoter with eight TCF/LEF binding sites) in SW480 colon carcinoma cells. In words: Screening assay for Wnt activity: Sp5-Luc reporter gene assay in SW480 cells. As to conditions: for inhibition at 10 µM: read-out: percent inhibition at 10 μM (given for EC50 of >10 μM); for EC50: 10-point dose-response starting from 10 μM, overnight incubation. Summed up: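 Luminescence (BrightGlo) read after overnight 37 °C exposure of Sp5-Luc SW480 reporter cells, 4,000/well in 1% FBS, to compound dosed 1:3 over 10 points from 10 μM with 0.1% DMSO. Values normalized to DMSO-only cells, fitted with variable-slope four-parameter model; where EC50 exceeds 10 μM, % inhibition at 10 μM reported.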

The subject of assay [2] is SW480 colon cancer cells. The assay can be described thus: Cell viability assay (CellTiter-Blue) in SW480 colon cancer cells. As to conditions: Homo sapiens, 96 h; for inhibition at 10 µM: four days, CellTiter-Blue, read-out: percent inhibition at 10 μM (given for EC50 of >10 μM); for EC50: four days incubation, CellTiter-Blue cell viability. In a few lines: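 Four-day exposure of SW480 cells (~2×10^3/well) to compound from 10 μM down to 0.004 μM in 1:3 steps, in duplicate. Resorufin fluorescence from CellTiter-Blue after ~3 h served as the viability read-out. EC50 values came from nonlinear curve fits, with % inhibition at 10 μM given where EC50 >10 μM.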
On the technique in general: Resazurin is reduced to fluorescent resorufin, in cell work by metabolically active cells.

For assay [3], the system named is IL-6 in THP-1 cells. The assay can be described thus: Inhibition of IL-6 in LPS-stimulated THP-1 human monocyte cells (HTRF). The following applies: IL-6 HTRF; for EC50: 500 ng/mL LPS, 22 hours; for inhibition at 10 µM: LPS, read-out: percent inhibition in brackets (given for EC50 >10 μM). In a few lines: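 IL-6 was quantified by HTRF ratio after LPS (500 ng/mL, 22 h) stimulation of THP-1 monocytes pretreated 2 h with compound, 10-point 1:3 dilutions from 10 μM, 0.1% DMSO. Cells were held in 1% FBS for 24 h beforehand. Values normalised to DMSO; four-parameter EC50, or % inhibition at 10 μM above that.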
In general terms: Time-resolved FRET reads energy transfer from a long-lived donor to a nearby acceptor.

As a reminder, the inhibition is the drop in the measured response relative to a control, in per cent. By EC50 is commonly meant the concentration needed to bring the measured effect to its halfway point. Turning to `Cc1cnc(-c2ccc3[nH]nc(-c4nc5c(-c6cccc(F)c6)cncc5[nH]4)c3n2)s1` [Compound 1082, 2-(3-(7-(3-Fluorophenyl)-3H-imidazo[4,5-c]pyridin-2-yl)-1H-pyrazolo[4,3-b]pyridin-5-yl)-5-methylthiazole], the inhibition at 10 µM amounted to 27% in assay [1], 11.5% in assay [2] and 14.3% in assay [3]. The EC50 in assay [1], in assay [2] and in assay [3] was above 10 µM throughout.

`Cn1cc(-c2ccc3[nH]nc(-c4nc5c(-c6ccc(F)cc6)cncc5[nH]4)c3n2)c(CO)n1` [Compound 1084, (4-(3-(7-(4-Fluorophenyl)-3H-imidazo[4,5-c]pyridin-2-yl)-1H-pyrazolo[4,3-b]pyridin-5-yl)-1-methyl-1H-pyrazol-3-yl)methanol]: the inhibition at 10 µM in assay [1] turned out to be 11.8%; in assay [2], 5.7%; in assay [3], 4.1%. In addition, the EC50 in assay [1], in assay [2] and in assay [3] was above 10 µM in each case.

`Cn1cc(-c2ccc3[nH]nc(-c4nc5c(N6CCCCC6)cncc5[nH]4)c3n2)c(CO)n1` [Compound 1089, (1-Methyl-4-(3-(7-(piperidin-1-yl)-3H-imidazo[4,5-c]pyridin-2-yl)-1H-pyrazolo[4,3-b]pyridin-5-yl)-1H-pyrazol-3-yl)methanol]: the inhibition at 10 µM in assay [1] is 24.2%; in assay [2], 15.5%. Further, the EC50 was above 10 µM in assay [1], above 10 µM in assay [2] and 0.52 µM in assay [3].

Consider `Cn1cc(-c2ccc3[nH]nc(-c4nc5c(-c6ccc7c(c6)OCO7)cncc5[nH]4)c3n2)c(CO)n1` [Compound 1106, (4-(3-(7-(Benzo[d][1,3]dioxol-5-yl)-3H-imidazo[4,5-c]pyridin-2-yl)-1H-pyrazolo[4,3-b]pyridin-5-yl)-1-methyl-1H-pyrazol-3-yl)methanol], for which the inhibition at 10 µM in assay [1] was 24.7%; in assay [2], 3.1%; in assay [3], 0%. The EC50 in assay [1], in assay [2] and in assay [3] was above 10 µM each time.
